# Values joined by “and” are separate entries in the source; they are usually repeats but may differ in a detail not shown here. Equal entries are not always repeated. Structures can show the parent of a compound that is named as a salt. Where two headings read alike, the source gives them in different places.
# Legend:
# SARS-CoV-2 [1] = test: microbe, parasite or virus in culture; assay type: cell-based
# [2] = Uninfected HeLa-ACE2 24 h live/dead cytotoxicity counter screen; assay type: cell-based, human; conditions: human, uninfected HeLa-ACE2 cells; read-out: HeLa-ACE2 uninfected cytotoxicity CC50 GeoMean
# HeLa-ACE2 cells [3] = test: as above; assay type: cell-based, human; conditions: human, uninfected HeLa-ACE2 cells, 24 h
# SARS-CoV-2 [4] = test: microbe, parasite or virus in culture; assay type: cell-based; conditions: Severe acute respiratory syndrome coronavirus 2, Calu-3; read-out: Calu-3 CoV-2 EC50 GeoMean
# SARS-CoV-2 [5] = test: microbe, parasite or virus in culture; assay type: cell-based; conditions: for SARS-CoV-2 % infected cells: 10 µM after 1 h infection
# SARS-CoV-2 [6] = assay type: cell-based; conditions: combination with remdesivir
# HeLa-ACE2 cells [7] = test: Total cell count in the HeLa-ACE2 TOA (time of addition) assay; assay type: cell-based, human; conditions: Homo sapiens, HeLa-ACE2; read-out: HeLa-ACE2 TOA cell count EC50 GeoMean
# Calu-3 cells [8] = conditions: human
# HeLa-ACE2 cells [9] = test: cells; conditions: Homo sapiens
# Calu-3 cells [10] = test: cells; conditions: Homo sapiens, Calu-3, read-out: Calu-3 cell count EC50 GeoMean
# COVID-19 = conditions: ref [9]; cited from earlier work
# [11] = HepG2 72 h CellTiter-Glo cytotoxicity; conditions: human, HepG2 cells
# HepG2 = HepG2 72 h CellTiter-Glo cytotoxicity; conditions: 72 h
# [12] = HEK293T 72 h CellTiter-Glo cytotoxicity; conditions: human, HEK293T cells
# HEK293T = HEK293T 72 h CellTiter-Glo cytotoxicity; conditions: 72 h
# [13] = Uninfected Calu-3 48 h Cell-Titer Glo cytotoxicity counter screen; conditions: human, uninfected Calu-3 cells, Calu-3 uninfected cytotoxicity CC50 GeoMean
# Calu-3 cells [14] = test: as above; conditions: human, uninfected Calu-3 cells, 48 h
smiles,measurement,setting,value
CCN(CCO)CCCC(C)Nc1ccnc2cc(Cl)ccc12 (stereo not shown) [Hydroxychloroquine sulfate],Emax,"SARS-CoV-2 [1]; Severe acute respiratory syndrome coronavirus 2, HeLa-ACE2, 24 h, read-out: HeLa-ACE2 CoV-2 Sinf Average",100%
same,EC50,"SARS-CoV-2 [1]; Severe acute respiratory syndrome coronavirus 2, HeLa-ACE2, detail column, read-out: HeLa-ACE2 CoV-2 EC50 GeoMean",0.458 µM
same,HeLa-ACE2 SI,"SARS-CoV-2 [1]; selectivity index, uninfected HeLa-ACE2 CC50 / SARS-CoV-2 EC50",> 40.04
same,CC50 at 24 h,[2],> 18.3 µM
same,HeLa-ACE2 uninfected cytotoxicity Sinf Average,HeLa-ACE2 cells [3],-99%
same,EC50,SARS-CoV-2 [4],> 9.99 µM
same,TOA:HeLa-ACE2 EC50 Ratio,SARS-CoV-2 [5],20.968
same,SARS-CoV-2 % infected cells,SARS-CoV-2 [5]; 4:00:00 post infection,0.3802% and 0.1721% and 0.1129%
same,SARS-CoV-2 % infected cells,SARS-CoV-2 [5]; 5:00:00,0.24% and 0.7413% and 0.2751%
same,SARS-CoV-2 % infected cells,SARS-CoV-2 [5]; 6:00:00,11.7654% and 10.6398% and 10.3646%
same,SARS-CoV-2 % infected cells,SARS-CoV-2 [5]; 7:00:00,25.8166% and 25.8417% and 29.0337%
same,SARS-CoV-2 % infected cells,SARS-CoV-2 [5]; 8:00:00,31.116% and 29.6088% and 30.8104%
same,SARS-CoV-2 % infected cells,SARS-CoV-2 [5]; 10:00:00,33.0276% and 34.8116% and 35.0891%
same,SARS-CoV-2 % infected cells,SARS-CoV-2 [5]; 11:00:00,35.46% and 36.5434% and 36.8817%
same,SARS-CoV-2 % infected cells,SARS-CoV-2 [5]; 12:00:00,33.0004% and 35.9224% and 38.4986%
same,SARS-CoV-2 % infected cells,SARS-CoV-2 [5]; 24:00:00,45.3401% and 44.0948% and 41.0805%
same,activity when treatment was initiated at 1 hpi,"SARS-CoV-2 [5]; HeLa-ACE2, 10 µM",Loss of activity
same,EC50,"SARS-CoV-2 [5]; Severe acute respiratory syndrome coronavirus 2, HeLa-ACE2, detail column, read-out: HeLa-ACE2 TOA CoV-2 EC50 GeoMean",> 9.61 µM
same,HeLa-ACE2 synergy score with remdesivi,SARS-CoV-2 [6],-1.572 δ
same,EC50,HeLa-ACE2 cells [7],> 9.61 µM
same,cytotox,Calu-3 cells [8],13.7874
same,Emax,"HeLa-ACE2 cells [9]; HeLa-ACE2, 24 h, read-out: HeLa-ACE2 cell count Sinf Average",-47%
same,EC50,"HeLa-ACE2 cells [9]; HeLa-ACE2, read-out: HeLa-ACE2 cell count EC50 GeoMean",> 5.88 µM
same,EC50,Calu-3 cells [10],> 9.99 µM
same,mortality of hospitalized COVID-19 patients,COVID-19,failed to reduce mortality
same,CC50 at 72 h,[11],3.62 µM
same,HepG2 72-hour cytotoxicity Sinf Average,HepG2,-100%
same,CC50 at 72 h,[12],10.1 µM
same,HEK293T 72-hour cytotoxicty Sinf Average,HEK293T,-101%
same,CC50 at 48 h,[13],> 24.7 µM
same,Calu-3 uninfected cytotoxicity Sinf Average,Calu-3 cells [14],-100%
